Results: patent US20160159861A1, “APJ Receptor Compounds” (priority 2013, published 2016)
Read-outs that look alike come from different tables or passages of the source. Peptide text beside a SMILES is read from it.

Assays:
[1] = molecular target: T1, human APJ receptor (hAPJ) (Homo sapiens, UniProt P35414); test: HTRF cAMP assay: inhibition of NKH477-stimulated cAMP in HEK cells stably expressing hAPJ; type: cell-based; conditions: for Emax: HEK293, read-out: % IA, bound stated; for % IA (cAMP inhibition, hAPJ HEK): intrinsic activity; for Ranking: composite class of EC50 (hAPJ), % IA and % histamine or formal (+) charge; for inhibition of NKH477-stimulated increase in cAMP, dose dependent: concentration response curves, FIGS. 1 and 2, HEK cells stably expressing APJ
T1 construct: expressed in transfected cells
T1 sequence (P35414 1-380): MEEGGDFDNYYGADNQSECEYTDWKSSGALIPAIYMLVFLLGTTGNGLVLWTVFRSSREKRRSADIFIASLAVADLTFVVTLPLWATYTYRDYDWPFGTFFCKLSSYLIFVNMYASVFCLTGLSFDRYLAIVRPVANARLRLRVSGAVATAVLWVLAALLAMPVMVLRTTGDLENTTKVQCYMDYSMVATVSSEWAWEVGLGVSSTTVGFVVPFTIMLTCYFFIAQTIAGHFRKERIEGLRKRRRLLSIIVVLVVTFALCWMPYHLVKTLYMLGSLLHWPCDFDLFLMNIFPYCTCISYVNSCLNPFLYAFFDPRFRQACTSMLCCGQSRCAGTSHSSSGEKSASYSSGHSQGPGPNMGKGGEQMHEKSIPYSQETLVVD
Outline: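 HEK cells stably expressing hAPJ, induced with 1 nG/mL doxycycline and seeded overnight at 40 k/well. cAMP read by HTRF competitive immunoassay using cryptate-labeled anti-cAMP antibody and d2-labeled cAMP.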

[2] = tested on: rat peritoneal cells; test: Ex vivo histamine release assay in rat peritoneal cells (vs. Compound 48/80); type: cell-based
Excerpt: More desirable pharmacological tolerability can include a decrease in an undesirable side effect (e.g., histamine release, an indicator of mast cell degranulation) without a significant loss in activity of the compound.
Screening of the variant G protein receptor compounds against a control compound for histamine release can be done following standard assays. The standard assay can include comparison to a control compound known to elicit a histamine response (e.g., 48/80 having CAS No. 94724-12-6). Such an assay using rat peritoneal cells is described herein for the APJ compounds.
Test compounds were assayed in the ex vivo histamine release assay using a 3-point dose response. Concentrations of total histamine contained in the cells is used to correct for variability in the numbers of mast cells in the lavage per well.
Resident peritoneal cells were harvested from naïve Sprague Dawley rats (male 200-300 gr, Charles River). Rats were euthanized by CO2 asphyxiation and a skin incision was made along the middle-line of the abdomen. Thirty milliliters of HBSS (HyClone, cat#SH 30268.01) containing 20 mM HEPES and 0.2% BSA (heretofore Assay Buffer) were injected intraperitoneally using a 30 mL syringe with the attached 18 gauge needle. The abdomen was gently lavaged for 1-2 min and 7-10 milliliters of the peritoneal lavage were carefully aspirated. Cell count in the peritoneal lavage was determined using Cellometer Auto T4 (Nexcelom Bioscience). The peritoneal cell count was adjusted to […] cells/mL in Assay Buffer. Rat peritoneal cells were kept at room temperature before and during the assay.
For the 10-point assay, 3-fold serial dilutions were prepared for each test compound in 100% DMSO in 96-well plates (Greiner Bio One, Ref#651261)—from 100 μM down to […]. For the 3-point assay, 10-fold serial dilutions were prepared in 100% DMSO at 100 μM, 10 μM and 1 μM concentrations. From this plate, 5 μL of compound were transferred to a new plate containing 45 μL Assay Buffer to generate a compound plate with 10× final concentrations in 10% DMSO with Assay Buffer. In the final plates, column 11 contained 1% DMSO for the low-histamine-releasing control.
Suspensions of the rat peritoneal cells (90 μL of 2.75×10^5 cells/mL; →25,000 cells per well) were introduced into each well of a new 96-well microtiter plate (Greiner Bio One, Ref#651261) and 10 μL aliquots of the serially diluted compounds were transferred to the cells in each well. The microtiter plate was incubated for 30 min at room temperature. Following incubation cells were spun down (500 rpm, 7 min) and supernatants were collected for further analysis. Supernatants were diluted 6 times with the assay buffer (15 μL to 75 μL, for 90 μL total) and released histamine content was determined using HTRF® Histamine assay kit (CisBio, cat#62HTMPEB). To measure the total histamine in each well, cells were lysed by addition of 15 μL 5% TritonX-100 to each well followed by incubation for 15 minutes. The plates were then spun at 3000 rpm for 5 minutes, and 10 μL of supernatant were diluted 9-fold in assay buffer (10 μL to 80 μL for 90 μL total) to make the “total” histamine plate. Histamine content was measured as described above for the “released” histamine values.
The standard positive control was Compound 48/80 (Enzo Life Sciences), a oligomeric polymer mixture produced by the condensation of N-methyl-p-methoxyphenethylamine with formaldehyde. The trimer is the most abundant in the mixture Compound 48/80 is used to promote mast cell degranulation and activates G proteins by a mechanism analogous to that of mastoparan. […] See references: T. Higashijima et al., J. Biol., Chem., 265 14176 (1990); M. Mousli et al., FEBS Lett., 259 260 (1990); K. Gietzen et al., Biochim. Biophys. Acta, 736 109 (1983); K. Gietzen, Biochem. J., 1983 216 611 and C. Bronner et al., Biochim. Biophys. Acta, 920 301(1987).

[3] = HTRF cAMP Assay, per data of Table 6
[4] = HTRF cAMP Assay, per data of Table 6, read-out: EC50 (hAPJ), inhibition of cAMP production, bound stated
[5] = Table 6, hAPJ HEK cells, NKH477-stimulated cAMP, read-out: EC50 (cAMP inhibition, hAPJ HEK)

SMILES	Emax [1, 3] [%]	EC50 [1, 4] [nM]	EC50 [1, 5] [nM]	% IA (cAMP inhibition, hAPJ HEK) ([1]; Table 6, hAPJ HEK cells) [%]	Ranking [1]	inhibition of NKH477-stimulated increase in cAMP, dose dependent [1]	Histamine (% vs. 48/80) [2] [%]	EC50 ([1]; EC50 (cAMP inhibition, hAPJ HEK), Table 6, hAPJ HEK cells, NKH477-stimulated cAMP) [nM]	Histamine (% vs. 48/80) ([2]; histamine release from rat peritoneal cells relative to Compound 48/80) [%]
CCCCCCCCCCCCCCCC(=O)N[C@@H](CC(=O)O)C(=O)N[C@H](C(=O)N[C@@H](Cc1ccccc1)C(=O)N[C@@H](CCC(N)=O)C(=O)N[C@@H](CO)C(=O)N[C@@H](CCC(=O)O)C(=O)N[C@H](CCCCN)C(=O)N[C@@H](CCCNC(=N)N)C(=O)N[C@@H](CCCNC(=N)N)C(=O)N[C@@H](CO)C(=O)N[C@@H](C)C(=O)N[C@@H](CC(=O)O)C(=O)N[C@@H](CCC(N)=O)C(=O)N[C@@H](Cc1ccccc1)C(=O)N[C@H](C(N)=O)[C@@H](C)CC)C(C)C [Compound 17] (HELM PEPTIDE1{[CCCCCCCCCCCCCCCC(=O)[*:2]].D.V.F.Q.S.E.[dK].R.R.S.A.D.Q.F.I.[am]}$$$$V2.0)	≥ 80	≤ 25	24	111	***** (EC50≦25 nM (hAPJ), % IA≧80% and either % histamine≦35% or formal (+) charge≦1)	inhibited	1	–	–
CCCCCCCCCCCCCCCC(=O)N[C@H](C(=O)N[C@H](C(=O)N[C@@H](Cc1ccccc1)C(=O)N[C@@H](CCCNC(=N)N)C(=O)N[C@@H](CO)C(=O)N1CCC[C@H]1C(=O)N[C@@H](CO)C(=O)N[C@@H](CCC(=O)O)C(=O)N[C@H](CCCCN)C(=O)N[C@@H](CCCNC(=N)N)C(=O)N[C@@H](CCCNC(=N)N)C(=O)N1CCC[C@H]1C(=O)N[C@@H](CO)C(=O)N[C@@H](C)C(=O)N[C@@H](CC(=O)O)C(=O)N[C@H](C(=O)N[C@@H](Cc1ccccc1)C(N)=O)[C@@H](C)CC)C(C)C)[C@@H](C)O [Compound 22] (HELM PEPTIDE1{[CCCCCCCCCCCCCCCC(=O)[*:2]].T.V.F.R.S.P.S.E.[dK].R.R.P.S.A.D.I.F.[am]}$$$$V2.0)	–	–	17	47	* (EC50≦50 nM (hAPJ), % IA<50%)	–	60	–	–
CCCCCCCCCCCCCCCC(=O)N[C@H](C(=O)N[C@H](C(=O)N[C@@H](Cc1ccccc1)C(=O)N[C@@H](CCC(N)=O)C(=O)N[C@@H](CO)C(=O)N[C@@H](CO)C(=O)N[C@@H](CCC(=O)O)C(=O)N[C@H](CCCCN)C(=O)N[C@@H](CCCNC(=N)N)C(=O)N[C@@H](CCCNC(=N)N)C(=O)N[C@@H](CO)C(=O)N[C@@H](C)C(=O)N[C@@H](CC(=O)O)C(=O)N[C@@H](Cc1ccccc1)C(=O)N[C@H](C(N)=O)[C@@H](C)CC)C(C)C)[C@@H](C)O [Compound 15, Pal-TVFQSSEkRRSADFI-amide] (HELM PEPTIDE1{[CCCCCCCCCCCCCCCC(=O)[*:2]].T.V.F.Q.S.S.E.[dK].R.R.S.A.D.F.I.[am]}$$$$V2.0)	≥ 80	≤ 25	12	108	***** (EC50≦25 nM (hAPJ), % IA≧80% and either % histamine≦35% or formal (+) charge≦1)	inhibited	30	–	–
CCCCCCCCCCCCCCCC(=O)N1CCC[C@H]1C(=O)N[C@H](CCCCN)C(=O)N[C@@H](CCCNC(=N)N)C(=O)N[C@@H](CCCNC(=N)N)C(=O)N[C@@H](CO)C(=O)N[C@@H](C)C(=O)N[C@@H](CC(=O)O)C(=O)N[C@H](C(=O)N[C@@H](Cc1ccccc1)C(=O)N[C@H](C(=O)N1CCC[C@H]1C(N)=O)[C@@H](C)CC)[C@@H](C)CC [Compound 30] (HELM PEPTIDE1{[CCCCCCCCCCCCCCCC(=O)[*:2]].P.[dK].R.R.S.A.D.I.F.I.P.[am]}$$$$V2.0)	≥ 80	≤ 25	16	86	***** (EC50≦25 nM (hAPJ), % IA≧80% and either % histamine≦35% or formal (+) charge≦1)	inhibited	34	–	–
CCCCCCCCCCCCCCCC(=O)N1CCC[C@H]1C(=O)N[C@@H](CCCCNC(=O)[C@@H]1CCCN1C(=O)[C@H](Cc1ccccc1)NC(=O)[C@@H](NC(=O)[C@H](CC(=O)O)NC(=O)[C@H](C)NC(=O)[C@H](CO)NC(=O)[C@H](CCCNC(=N)N)NC(=O)[C@H](CCCNC(=N)N)NC(=O)[C@@H](CCCCN)NC(=O)[C@@H]1CCCN1C(C)=O)[C@@H](C)CC)C(=O)N[C@@H](CCCNC(=N)N)C(=O)N[C@@H](CCCNC(=N)N)C(=O)N[C@@H](CO)C(=O)N[C@@H](C)C(=O)N[C@@H](CC(=O)O)C(=O)N[C@H](C(=O)N[C@@H](Cc1ccccc1)C(=O)N1CCC[C@H]1C(N)=O)[C@@H](C)CC [Compound 9] (HELM PEPTIDE1{[CCCCCCCCCCCCCCCC(=O)[*:2]].P.K.R.R.S.A.D.I.F.P.[am]}|PEPTIDE2{[ac].P.[dK].R.R.S.A.D.I.F.P}$PEPTIDE1,PEPTIDE2,3:R3-11:R2$$$V2.0)	–	–	–	84	** (EC50 25-50 nM (hAPJ), % IA 50-79% and either % histamine>35% or formal (+) charge>1)	–	65	–	–
CCCCCCCCCCCCCCCC(=O)N[C@H](C(=O)N1CCC[C@H]1C(=O)N[C@H](C(=O)N[C@@H](Cc1ccccc1)C(=O)N[C@@H](CCCNC(=N)N)C(=O)N[C@@H](CO)C(=O)N[C@@H](CO)C(=O)N1CCC[C@H]1C(=O)N[C@@H](CCC(=O)O)C(=O)N[C@H](CCCCN)C(=O)N[C@@H](CCCNC(=N)N)C(=O)N[C@@H](CCCNC(=N)N)C(=O)N[C@@H](CO)C(=O)N[C@@H](C)C(=O)N[C@@H](CC(=O)O)C(=O)N[C@H](C(=O)N[C@@H](Cc1ccccc1)C(=O)N[C@H](C(N)=O)[C@@H](C)CC)[C@@H](C)CC)C(C)C)[C@@H](C)O [Compound 2] (HELM PEPTIDE1{[CCCCCCCCCCCCCCCC(=O)[*:2]].T.P.V.F.R.S.S.P.E.[dK].R.R.S.A.D.I.F.I.[am]}$$$$V2.0)	–	–	–	60	** (EC50 25-50 nM (hAPJ), % IA 50-79% and either % histamine>35% or formal (+) charge>1)	–	–	4	49
